23 molecules from patent publication US12404232B2, “Compounds and compositions for intracellular delivery of therapeutic agents” (ModernaTX, Inc., priority 2015, dated 2025) can be followed below.

For data set [1], the system named is mice. As to the kind of experiment: Luc expression (total flux) after intramuscular administration. Particulars: 6 hours after intramuscular administration, Luc mRNA and H10 mRNA. It counts as in vivo. The protocol:
The numbers 1-7 in this figure correspond to MC3, Compounds 168-170, and 173-175 respectively.
In order to monitor how effectively various nanoparticle compositions deliver therapeutic and/or prophylactics to targeted cells, different nanoparticle compositions including a particular therapeutic and/or prophylactic (for example, a modified or naturally occurring RNA such as an mRNA) are prepared and administered to rodent populations. Mice are intravenously, intramuscularly, intraarterially, or intratumorally administered a single dose including a nanoparticle composition with a formulation such as those provided in Example 3. In some instances, mice may be made to inhale doses. Dose sizes may range from 0.001 mg/kg to 10 mg/kg, where 10 mg/kg describes a dose including 10 mg of a therapeutic and/or prophylactic in a nanoparticle composition for each 1 kg of body mass of the mouse. A control composition including PBS may also be employed.
The total flux (measured by area under the curve, AUC) induced by administration of a formulation including a given lipid relative to that induced by administration of a formulation including MC3 was also measured for several lipids.
Sample formulations including both modified luciferase (Luc) mRNA and H10 mRNA were prepared and administered intramuscularly and the resulting expression and immunogenicity were evaluated simultaneously. Formulations including compounds according to Formula (I), (IA), (II), (IIa), (IIb), (IIc), (IId) or (IIe) were prepared and administered at doses of 0.001 and 0.01 mpk (e.g., doses of 0.0005 mpk of a formulation including Luc mRNA and a formulation including H10 mRNA or doses of 0.005 mpk of a formulation including Luc mRNA and a formulation including H10 mRNA).
Sample formulations including modified luciferase (Luc) mRNA prepared and administered intramuscularly and the resulting expression and immunogenicity were evaluated simultaneously. Formulations including compounds according to Formula (I), (IA), (II), (IIa), (IIb), (IIc), (IId) or (IIe) were prepared and administered at dose of […] 0.01 mpk.
The fluxes measured upon intravenous and intramuscular administration are compared in Table 6. Fluxes are presented as fold increase over that measured for MC3 formulations.

The subject of data set [2] is mice. Kind of data set: Cytokine induction (IL-6, IP-10) in mice after intravenous administration. The data set is classed as in vivo. Set-up: IL-6 / IP-10: unit not given here. Particulars: 0.5 mpk, 6 hours. An excerpt: The introduction of foreign material into a mammalian body induces an innate immune response that promotes cytokine production. Such immune responses to, for example, nanoparticle compositions including therapeutic and/or prophylactics, are undesirable. The induction of certain cytokines is thus measured to evaluate the […] of nanoparticle compositions. The concentrations of various cytokines in mice upon intravenous administration of nanoparticle compositions presented in Table 1A at a dosage of 0.5 mpk was measured at 6 hours. The standard MC3 formulation and a PBS control were also tested. As is evident in Table 7, IL-6 induction was highest for compositions including Compounds 1, 3, 9, 19, and 26, while IP-10 induction was highest for compositions including Compounds 3, 4, 7, 20, and 26. IL-6 induction was lowest for compositions including Compounds 4, 11, 12, and 28. IP-10 induction was lowest for compositions including Compounds 10, 11, 12, 13, 15, 17, and 18.
The expression of hEPO and cytokine induction in mice intravenously administered a nanoparticle composition at a dose of 0.5 mpk were measured at 3, 6, and 24 hours. […] The expression of hEPO in mice intramuscularly administered a nanoparticle composition from Table 1B at a dose of 0.01 mpk were measured at 3, 6, and 24 hours. […] (see also FIG. 9.)

As for `CCCCCCCCC(CCCCCCCC)OC(=O)CCCCCCCN(CCO)CCCCCC` [Compound 5, Heptadecan-9-yl 8-(hexyl(2-hydroxyethyl)amino)octanoate], in data set [1], the “Total flux (p/s) 0.001 mpk Dose” value is recorded as 9.84E+05 p/s and the “Total flux (p/s) 0.01 mpk Dose” value is 3.55E+06 p/s. In addition, in data set [2], the IL-6 amounted to 94.07 and the IP-10 came to 487.16.

In the case of `CCCCCCCCCOC(=O)CCCCCCCN(CCO)CCCCCCCC(=O)OC(CCCC)CCCC` [Compound 57, nonan-5-yl 8-((2-hydroxyethyl)(8-(nonyloxy)-8-oxooctyl)amino) octanoate], in data set [1], the “Total flux (p/s) 0.001 mpk Dose” value turned out to be 1.16E+05 p/s and the “Total flux (p/s) 0.01 mpk Dose” value came out at 2.23E+05 p/s.

Consider `CCCCCCCCCN(CCCCCCCC(=O)OC(CCCCCCCC)CCCCCCCC)CCCn1ccnc1` [Compound 8, Heptadecan-9-yl 8-((3-(1H-imidazol-1-yl)propyl)(nonyl)amino)octanoate], for which, in data set [1], the “Total flux (p/s) 0.001 mpk Dose” value is listed as 7.81E+05 p/s and the “Total flux (p/s) 0.01 mpk Dose” value was 3.32E+06 p/s.

On to `CCCCCCCCCOC(=O)CCCCCCCN(CCO)CCCCCCCC(=O)N(CCCCCCCC)CCCCCCCC` [Compound 144, Nonyl 8-((8-(dioctylamino)-8-oxooctyl)(2-hydroxyethyl)amino)octanoate], for which, in data set [1], the “Total flux (p/s) 0.001 mpk Dose” value came out at 2.72E+06 p/s and the “Total flux (p/s) 0.01 mpk Dose” value is given as 2.18E+07 p/s. Also, in data set [2], the IL-6 is 319.46 and the IP-10 came to 4220.55.

On to `CCCCCCCCCCCCCCN(CCO)CCCCCCCC(=O)OC(CCCCCCCC)CCCCCCCC` [Compound 2, Heptadecan-9-yl 8-((2-hydroxyethyl)(tetradecyl)amino)octanoate], for which, in data set [1], the “Total flux (p/s) 0.001 mpk Dose” value worked out at 3.55E+06 p/s and the “Total flux (p/s) 0.01 mpk Dose” value was determined as 6.16E+07 p/s. In data set [2], this molecule registered an IL-6 of 70.95 and an IP-10 of 468.86.

Turning to `CCCCCCCC/C=C\COC(=O)CCCCCN(CCO)CCCCCC(=O)OC/C=C\CCCCCCCC` [Compound 140, Di((Z)-undec-2-en-1-yl) 6,6′-((2-hydroxyethyl)azanediyl)dihexanoate], in data set [1], the “Total flux (p/s) 0.001 mpk Dose” value amounted to 2.03E+05 p/s and the “Total flux (p/s) 0.01 mpk Dose” value came to 6.09E+05 p/s. In addition, in data set [2], the IL-6 was 282.82 and the IP-10 is on record as 187.83.

In turn, `CCCCCCCCCOC(=O)CCCCCCCN(CCCCCCCC(=O)OC(CCCCCCCC)CCCCCCCC)CCOCCN(C)C` [Compound 17, Heptadecan-9-yl 8-((2-(2-(dimethylamino)ethoxy)ethyl) (8-(nonyloxy)-8-oxooctyl)amino)octanoate] yielded an IL-6 in data set [2] of 138.43.

As to `CCCCCCCCCOC(=O)CCCCCCCN(CCO)CCCCCCCCCC(=O)OC(CCCCCCCC)CCCCCCCC` [Compound 23, Heptadecan-9-yl 10-((2-hydroxyethyl)(8-(nonyloxy)-8-oxooctyl)amino) decanoate], in data set [1], the “Total flux (p/s) 0.001 mpk Dose” value is reported as 8.27E+06 p/s and the “Total flux (p/s) 0.01 mpk Dose” value was 2.20E+06 p/s. In data set [2], the IL-6 was 94.00 and the IP-10 amounted to 1015.95.

Consider `CCCCCCCCCOC(=O)CCCCCCCN(CCCCCCCC(=O)OC(CCCCCCCC)CCCCCCCC)CCCOC` [Compound 16, Heptadecan-9-yl 8-((3-methoxypropyl)(8-(nonyloxy)-8-oxooctyl)amino) octanoate], for which, in data set [2], the IL-6 was 32.01 and the IP-10 amounted to 206.75.

In data set [2], `CCCCCCCCCOC(=O)CCCCCCCN(CCCCCCCC(=O)OC(CCCCCCCC)CCCCCCCC)CCOC(C)=O` [Compound 9, Heptadecan-9-yl 8-((2-acetoxyethyl)(8-(nonyloxy)-8-oxooctyl)amino) octanoate] came in with an IP-10 of 366.53.

In data set [2], `CCCCCCCCCOC(=O)CCCCCCCN(CCCCCCCC(=O)OC(CCCCCCCC)CCCCCCCC)CC(C)O` (stereo not drawn) [Compound 10, Heptadecan-9-yl 8-((2-hydroxypropyl)(8-(nonyloxy)-8-oxooctyl)amino) octanoate] gave an IL-6 of 88.81.

On to `CCCCCCCCCOC(=O)CCCCCCCN(CCCCCCCC(=O)OC(CCCCCCCC)CCCCCCCC)C[C@H](C)O` [Compound 12, Heptadecan-9-yl (S)-8-((2-hydroxypropyl)(8-(nonyloxy)-8-oxooctyl)amino)octanoate], for which, in data set [1], the “Total flux (p/s) 0.001 mpk Dose” value is recorded as 8.02E+04 p/s and the “Total flux (p/s) 0.01 mpk Dose” value is reported as 8.90E+05 p/s.

In data set [2], `CCCCCCCCCOC(=O)CCCCCCCN(CCCCCCCC(=O)OC(CCCCCCCC)CCCCCCCC)CCN(C)C` [Compound 14, Heptadecan-9-yl 8-((2-(dimethylamino)ethyl)(8-(nonyloxy)-8-oxooctyl)amino)octanoate] had an IL-6 of 75.29 and an IP-10 of 621.49.

On to `CCCCCC/C=C\COC(=O)CCCCCCCN(CCO)CCCCCCCC(=O)OC/C=C\CCCCCC` [Compound 139, Di((Z)-non-2-en-1-yl) 8,8′-((2-hydroxyethyl)azanediyl)dioctanoate], for which, in data set [2], the IL-6 came to 23.57 and the IP-10 is 153.36.

As to `CCCCCCCCCN(CCCO)CCCCCCCC(=O)OC(CCCCCCCC)CCCCCCCC` [Compound 7, Heptadecan-9-yl 8-((3-hydroxypropyl)(nonyl)amino)octanoate], in data set [1], the “Total flux (p/s) 0.001 mpk Dose” value was determined as 3.65E+06 p/s and the “Total flux (p/s) 0.01 mpk Dose” value came to 7.48E+07 p/s. The molecule also yielded an IL-6 in data set [2] of 116.35.

`CCCCCCCCCOC(=O)CCCCCCCN(CCCCCCCC(=O)OC(CCCCCCCC)CCCCCCCC)CC(O)CC` (stereo not drawn) [Compound 13, Heptadecan-9-yl 8-((2-hydroxybutyl)(8-(nonyloxy)-8-oxooctyl)amino) octanoate] came in with an IL-6 in data set [2] of 29.07.

For the molecule `CCCCCCCCCOC(=O)CCCCCCCN(CCCCCCCC(=O)OC(CCCCCCCC)CCCCCCCC)CCOC` [Compound 15, Heptadecan-9-yl 8-((2-methoxyethyl)(8-(nonyloxy)-8-oxooctyl)amino)octanoate], in data set [2], the IL-6 was found to be 64.65.

Regarding `CCCCCCCCCCCCCCCCCCN(CCO)CCCCCCCC(=O)OC(CCCCCCCC)CCCCCCCC` [Compound 1, Heptadecan-9-yl 8-((2-hydroxyethyl)(octadecyl)amino)octanoate], the IP-10 in data set [2] is listed as 687.14.

For `CCCCCCCCCOC(=O)CCCCCCCN(CCO)CCCCCCCC(=O)OC(CC)CCCCCCCC` (stereo not drawn) [Compound 35, nonyl 8-((2-hydroxyethyl)(8-oxo-8-(undecan-3-yloxy)octyl)amino) octanoate], in data set [1], the “Total flux (p/s) 0.001 mpk Dose” value came to 2.45E+06 p/s and the “Total flux (p/s) 0.01 mpk Dose” value turned out to be 8.12E+06 p/s.

In the case of `CCCCC/C=C\C/C=C\CCCCCCCCN(CCO)CCCCCCCC(=O)OCCCCCCCCC` [Compound 136, Nonyl 8-((2-hydroxyethyl)((9Z,12Z)-octadeca-9,12-dien-1-yl)amino)octanoate], in data set [2], the IL-6 is given as 28.69 and the IP-10 was 887.91.

With `CCCCCCCCCCCOC(=O)CCCCCN(CCO)CCCCCC(=O)OCCCCCCCCCCC` [Compound 141, Diundecyl 6,6′-((2-hydroxyethyl)azanediyl)dihexanoate], in data set [2], the IL-6 amounted to 327.15 and the IP-10 worked out at 1072.04.

In data set [2], `CCCCCCCCCOC(=O)CCCCCCCN(CCCCCCCC(=O)OC(CCCCCCCC)CCCCCCCC)C1CCCCC1O` (stereo not drawn) [Compound 22, Heptadecan-9-yl 8-((2-hydroxycyclohexyl)(8-(nonyloxy)-8-oxooctyl)amino)octanoate] gave an IL-6 of 90.54 and an IP-10 of 976.50.

Turning to `CCCCCCCCCOC(=O)CCCCCCCN(CCO)CCCCCCCC(=O)OC(CCCCCC)CCCCCCCC` (stereo not drawn) [Compound 32, nonyl 8-((2-hydroxyethyl)(8-oxo-8-(pentadecan-7-yloxy)octyl)amino) octanoate], in data set [1], the “Total flux (p/s) 0.001 mpk Dose” value stood at 7.37E+05 p/s and the “Total flux (p/s) 0.01 mpk Dose” value amounted to 1.03E+07 p/s.
